From US11478464B1, “Method for treating inflammation” (KING FAISAL UNIVERSITY, priority 2022, dated 2022)
Where “and” joins values, the source holds several entries; their conditions need not be identical. Equal values may be shown once. Entries after “also recorded” stand apart in the source; their conditions may differ. Read-outs that look alike come from different tables or passages of the source.

How the values were obtained:
[1] = tested on: carrageenan-induced rat paw edema; assay: Carrageenan-induced paw edema in rats; format: in vivo; settings: 10 mg/kg oral; for Paw size: individual rats; for Paw size, Average: average over all measurements 0-5 hours
Protocol: Carrageenan was injected subcutaneously into a rodent's paw to generate inflammation due to plasma extravasation, tissue proliferation, plasma protein release, and neutrophilic extravasation, all of which are caused by arachidonic acid digestion. The major phase of inflammation occurs after the carrageenan infusion, and lasts about two hours. This primary stage is associated with the emergence of histamine and serotonin. The next stage frequently is remodeling and edema, which lasts about five hours and begins at about the third hour after administration of carrageenan. The appearance of prostaglandins, proteases, and lysosomes is associated with this second stage of inflammation.
Adult male albino rats weighing 120 g-150 g were divided into five groups of seven rats, allowed free access to food and water at 25° C. and 12 h light/dark cycle. Inflammation was generated in the rats by subplantar injection of 0.2 ml of 1% carrageenan solution in 0.9 percent saline (Sigma-Aldrich, St. Louis, Mo., USA), and injected into the right hind paw. A vernier caliper (SMIEC, Shanghai, China) was used to measure the thickness of the rat paws before and after carrageenan injection to provide a measure of the inflammation caused by carrageenan.
Paw edema was measured at 0 minutes, 30 minutes, and 1, 2, 3, 4, and 5 hours following administration of the medication. Inhibition of edema was indicated by the reduction of increased thickness when comparing the treated and control groups.

[2] = tested on: HEK293 cells; settings: 40 μM; for Proliferation of HEK293 (difference in absorbance between 450 and 620 nm), individual wells: WST-1
Protocol: HEK293 cells were treated with the compound solution at 40 μM or the vehicle dimethyl sulfoxide (DMSO) for 24 hours, with the addition of 5% fetal ox-like serum for recognition of cell feasibility reliant on mitochondrial movement.
Three wells were tested for each treatment. WST-1 reagent was added to each well, and the cells were incubated at 37° C.

[3] = tested on: rat stomach; assay: Ulcerogenic effect on rat stomach (histopathology); format: in vivo; settings: for Rat stomach collagen deposition, Masson's Trichrome stain, 10× / Rat stomach collagen deposition, Masson's Trichrome stain / Rat stomach collagen deposition, Masson's Trichrome stain, 40×: 20 mg/kg oral single dose, 24 hours; for Rat stomach collagen deposition, Masson's Trichrome stain: 10× and 40×; for Effect on gastric mucosa, in words: rat stomach
Protocol: Rats were starved for 24 hours at a normal room temperature of 25° C. with a 12-hour light/dark cycle. The reference drug for comparison was indomethacin. All compounds were administered orally at a single dose of 20 mg/kg. The rats were sacrificed after 24 hours, and their stomachs were retrieved and cleansed with normal saline. Each group's stomachs were examined using binocular magnification to detect the presence of a gastric lesion on the mucosa. The stomachs were then preserved in 10% w/v formalin for histological analysis. Exemplary photomicrographs are included in FIGS. 5A to 5H, and FIGS. 6A to 6H, as discussed further below.
This was accomplished by histopathologic examination of rat stomachs stained by Masson's Trichrome stain. See the photomicrographs of exemplary sections depicted in FIGS. 6A to 6H. Again, after application of Masson's Trichrome, the collagen fibrils are stained blue-green. The double-headed arrow represents collagen fibrils thickness in the submucosa.

[4] = tested on: rat stomach; assay: Ulcerogenic effect on rat stomach (histopathology); format: in vivo; settings: 20 mg/kg oral single dose, 24 hours; for Rat stomach gastric layers, H&E: 10×; for Rat stomach inflammatory reaction, H&E: 40×
[5] = tested on: rat paw; assay: Histopathologic examination of carrageenan-treated rat paw (H&E, Masson's trichrome); format: in vivo; settings: for Rat paw collagen deposition, Masson's Trichrome stain / Rat paw histopathology, H&E, 10× magnification: 10×; for Rat paw histopathology, H&E: inflammatory reaction and edema: H&E stain
Protocol: The rat paws were removed and promptly cleaned in saline solution. The specimens were then fixed in 10% natural formalin for two days, and then rinsed with running water overnight. The cleaned samples were then dehydrated in increasing concentrations of ethyl alcohol, beginning with 70% and ending with absolute alcohol.
The samples were cleared by soaking them in xylol for 2 hours. The cleared samples were placed in a covered jar containing 50% paraffin in xylol for 3 hours at 37° C. The samples were then immersed in melting paraffin and maintained at 48° C. for 2 hours before being blocked in hard paraffin and cut into 5-micron sections. Hematoxylin and eosin (H&E) and Masson's trichrome were used to stain the sections. To prepare for histopathological investigation, sections of control rat paws, as well as rat paws treated with carrageenan alone or along with Compound 1, Compound 2, or indomethacin, were mounted with Canada balsam and coated with a coverslip.
The density of the blue-green collagen is consistent with the relative amount of deposited total collagen fiber, which represents collagen synthesis, degradation, and remodeling—some of which is associated with inflammation.

Row | Structure (SMILES) | Effect on rat paw edema, in words [1] | Rat stomach collagen deposition, Masson's Trichrome stain, 10× [3] | Rat stomach collagen deposition, Masson's Trichrome stain [3] | Rat stomach collagen deposition, Masson's Trichrome stain, 40× [3] | Effect on gastric mucosa, in words [3] | Rat stomach gastric layers, H&E [4] | Rat stomach inflammatory reaction, H&E [4] | Rat paw collagen deposition, Masson's Trichrome stain [5] | Rat paw histopathology, H&E, 10× magnification [5] | Rat paw histopathology, H&E, 40× magnification [5] | Rat paw histopathology, H&E: inflammatory reaction and edema [5] | Paw size ([1]; 30 min) | Paw size ([1]; 1 hour) | Paw size ([1]; 2 hours) | Paw size ([1]; 3 hours) | Paw size ([1]; 4 hours) | Paw size ([1]; 5 hours) | Paw size, Average [1] | Paw size ([1]; zero time) | Proliferation of HEK293 (difference in absorbance between 450 and 620 nm), individual wells ([2]; 24 hours) | further results
1 | Cc1ccc(-c2cc(C(F)(F)F)nn2-c2ccc(S(N)(=O)=O)cc2)cc1 [Celecoxib, reference compound] | dramatically reduced |  |  |  |  |  |  |  |  |  |  |  |  |  |  |  |  |  |  |  | Cytotoxicity: morphological changes or damages in HEK293 cells ([2]; human, 24 h): caused changes and damages in HEK293 cells
2 | Cc1cccc2[nH]c(C3CCCN(C(=O)c4ccccc4NCC(=O)O)C3)nc12 (stereo not shown) [Compound 1, [(2-{[3-(4-methyl-1H-benzimidazol-2-yl)piperidin-1-yl]carbonyl}phenyl)amino] acetic acid] | demonstrated to treat paw swelling; also recorded: significant decreases in rat paw size; also recorded: dramatically reduced | normal collagen deposition | normal collagen deposition | normal collagen deposition | no effect on gastric mucosa integrity or mucosa collagen content; also recorded: devoid of side effects on gastric mucosa | normal gastric layers | no sign of inflammatory reaction | slight collagen deposition | significant decrease in dermal thickness, inflammatory reaction in the deep dermis (black star), and moderate improvement in edema | slight inflammatory reaction (black star) and slight edema | reduce inflammatory cell infiltration and alleviate edema with lesser collagen deposition; also recorded: marked improvement in the degree of edema and the inflammatory cell infiltration | 0.7 cm (3×) and 0.65 cm (4×) | 0.55 cm and 0.5 cm (4×) and 0.45 cm (2×) | 0.5 cm (2×) and 0.45 cm (3×) and 0.4 cm (2×) | 0.4 cm (3×) and 0.35 cm and 0.45 cm (3×) | 0.45 cm (2×) and 0.4 cm (4×) and 0.5 cm | 0.55 cm and 0.6 cm (4×) and 0.65 cm (2×) | 0.542 cm | 0.75 cm (4×) and 0.7 cm (3×) | 1.0653 and 1.0573 and 1.0547 | Rat stomach inflammatory reaction, H&E ([4]; listed as compound 1): absence of any inflammatory reaction; Proliferation of HEK293 (difference in absorbance between 450 and 620 nm), Average ([2]; 24 hours, WST-1, three wells): 1.06
3 | CCOC(=O)c1cn(-c2cc(C#N)ccc2O)cc(Oc2ccccc2)c1=O [Compound 2, ethyl-1-(5-cyano-2-hydroxyphenyl)-4-oxo-5-phenoxy-1,4-dihydropyridine-3-carboxylate] | demonstrated to treat paw swelling; also recorded: significant decreases in rat paw size; also recorded: dramatically reduced | slight collagen deposition | slight collagen deposition | slight collagen deposition | no effect on gastric mucosa integrity or mucosa collagen content; also recorded: devoid of side effects on gastric mucosa | normal gastric layers | absence of any inflammatory reaction; also recorded: no sign of inflammatory reaction | slight collagen deposition; also recorded: lowest | substantial decrease in both inflammatory reaction (black star) and edema | slight inflammatory reaction (black star) and slight edema | reduce inflammatory cell infiltration and alleviate edema with lesser collagen deposition; also recorded: substantial decrease in both inflammatory reaction (black star) and a pronounced decline in edema | 0.7 cm (3×) and 0.65 cm (2×) and 0.55 cm (2×) | 0.55 cm and 0.5 cm (3×) and 0.45 cm (3×) | 0.45 cm (2×) and 0.4 cm (5×) | 0.35 cm and 0.4 cm (5×) and 0.45 cm | 0.4 cm (5×) and 0.45 cm (2×) | 0.55 cm and 0.6 cm (5×) and 0.5 cm | 0.524 cm | 0.75 cm (5×) and 0.7 cm (2×) | 1.0667 and 1.0476 and 1.0648 | Proliferation of HEK293 (difference in absorbance between 450 and 620 nm), Average ([2]; 24 hours, WST-1, three wells): 1.06
4 | O=C(O)Cc1ccccc1Nc1c(Cl)cccc1Cl [Diclofenac, reference compound] | significantly reduced rat paw edema |  |  |  |  |  |  |  |  |  |  | 0.7 cm and 0.65 cm (4×) and 0.6 cm (2×) | 0.55 cm and 0.5 cm (3×) and 0.4 cm (2×) and 0.45 cm | 0.45 cm (4×) and 0.4 cm (3×) | 0.4 cm (4×) and 0.35 cm (2×) and 0.45 cm | 0.35 cm (2×) and 0.4 cm (3×) and 0.45 cm (2×) | 0.55 cm (3×) and 0.6 cm (4×) | 0.518 cm | 0.7 cm (5×) and 0.75 cm (2×) |  | Proliferation of HEK293 (difference in absorbance between 450 and 620 nm), Average ([2]; human, 24 h): 1
5 | COc1ccc2c(c1)c(CC(=O)O)c(C)n2C(=O)c1ccc(Cl)cc1 [Indomethacin, reference compound] | significantly reduced rat paw edema; also recorded: dramatically reduced | significant collagen deposition | significant collagen deposition | collagen deposition |  | slight degeneration of gastric layers | absence of any inflammatory reaction; also recorded: no sign of inflammatory reaction | slight collagen deposition | significant decrease in inflammatory reaction (black star) and a moderate decrease in edema | slight inflammatory reaction (black star) and slight edema | significant decrease in the degree of inflammatory reaction (black star), and a moderate decrease in edema | 0.7 cm and 0.6 cm (4×) and 0.65 cm (2×) | 0.5 cm (2×) and 0.4 cm (4×) and 0.45 cm | 0.45 cm and 0.4 cm (3×) and 0.35 cm (3×) | 0.4 cm (5×) and 0.35 cm (2×) | 0.35 cm (4×) and 0.4 cm (3×) | 0.5 cm and 0.55 cm (4×) and 0.45 cm (2×) | 0.494 cm | 0.7 cm (2×) and 0.75 cm (5×) |  | 
